Assays:
[1] = tested on: P-glycoprotein; format: in vitro ADME
Experimental: (§1) Excised skin samples of both young and aged rats were obtained in the same way. Animals were anaesthetized intraperitoneally with chloral hydrate using a dose of 400 mg/kg. Under anesthesia, the hair of the abdominal skin was shaved off with an electric shaver, then epilated by an epilator cream (ISANA® cream from Rossmann, Burgwedel, Germany). Finally, the skin surface was washed and wiped dry. The abdominal skin was then mechanically sensitized 10 times by tape stripping (10 TS) with leucoplast (BSN Medical GmbH, Hamburg, Germany) to remove the upper layers of dead keratinocytes. The removal of the upper skin layer of the stratum corneum by adhesive tape has become a common practice in recent decades. The determination of the kinetics and penetration depth of different drugs by creating concentration–time profiles is facilitated by the use of the noninvasive method of tape stripping. Tape stripping makes it easier to evaluate the bioequivalence of topical dermatological dosage forms, and also makes it possible to reach detectable concentrations in the dermis and subcutis in preclinical animal models. […] Following these skin preparations, an approximately 1-cm, full-thickness skin incision was made in the caudal part of the abdominal area using scissors. After the first cutting with blunt Metzen scissors, fat, connecting tissue and blood vessels were carefully removed. Then, there were two options for continuing with the preparations, as follows. (1) Fresh skin preparation: Six skin disc-preparations were made from the abdominal, tape-stripped skin (approximately 3 cm in diameter each) for Franz diffusion cell study, or three skin square-preparations (approx. 1.5 cm × 1.5 cm) for skin-on-a-chip experiments. The skin preparations were stored in PPF at room temperature until the initiation of experiments, and were then placed between the donor and acceptor chambers on the cells of the Franz diffusion system or on the chip device. The stratum corneum layer of the skin contacted the test drug formulation, facing the donor chamber, while the dermal/subcutaneous surface contacted the PPF in the acceptor compartments. (2) Frozen skin preparation: Freshly prepared, tape stripped skin preparations were wrapped in an aluminum foil and stored in a deep freezer at −80 °C until the diffusion experiments. On the day of the study, the skin preparations were thawed at room temperature, and then placed on the Franz diffusion cells/chip devices in a similar way as that described for fresh skin preparation.
Hanson 6-Cell Manual Diffusion Test System-type Franz diffusion cells were used in the experiments (Hanson, ABL&E-JASCO Hungary Kft, Budapest, Hungary).
In each unit of the system, there was a heated magnetic stirrer chamber (acceptor compartment), stirred by a helical mixer (Figure 1). A magnet was placed on the bottom of the chamber and the helical mixer was connected to it. The acceptor chambers of the diffusion cells were filled with PPF. […] The diffusion surface was 1.767 cm^2. In the final step, a glass lid was placed onto the donor chambers. In each experiment, six parallel units were used and three cells of them always had the same arrangement with the same conditions. The cells were connected by plastic tubes. In these plastic connectors, distilled water at 32 °C was circulated to mimic the physiological dermal temperature. […] First, 0.5 mL samples were taken every 30 min from the acceptor compartments. After each sample collection, the removed fluid volume was replaced with PPF. Altogether, 60 samples were taken in each experiment, i.e., 10 from each unit. The collected samples were immediately placed on dry ice and stored at −80 °C until bioanalysis.
The dwell time of the transitions was 300 msec. Source conditions were as follows.

[2] = tested on: P-glycoprotein; details: fresh young rat skin
Experimental: as §1, with “The stratum corneum layer of the skin contacted the test drug formulation, facing the donor chamber, while the dermal/subcutaneous surface contacted the PPF in the acceptor compartments. (2) Frozen skin preparation: Freshly prepared, tape stripped skin preparations were wrapped in an aluminum foil and stored in a deep freezer at −80 °C until the diffusion experiments. On the day of the study, the skin preparations were thawed at room temperature, and then placed on the Franz diffusion cells/chip devices in a similar way as that described for fresh skin preparation.” left out

[3] = tested on: P-glycoprotein; details: topical PSC-833; erythromycin creams
Experimental: In the current study, a transdermal microdialysis technique was applied to investigate the skin penetration of test compounds through the dermal skin layer in anesthetized rats [24].
First, the epilation and shaving of the abdominal skin surface were performed under slight anesthesia, according to the protocol described in the ex vivo studies section.
The experiments were conducted the day after the skin preparation in order to eliminate the possible effect of the epilator cream and the dermal trauma caused by shaving. Animals were reanesthetized intraperitoneally with chloral hydrate with a dose of 400 mg/kg, and fixed in a supine position. In order to keep their body temperature at 37 °C during the experiment, they were placed on a heating pad. The abdominal skin was wiped dry and mechanically sensitized 10 times by tape-stripping with leucoplast (BSN Medical GmbH, Hamburg, Germany).
Two microdialysis probes (MAB11.8.10, Microbiotech, Stockholm, Sweden) were introduced in parallel at a distance of 2 cm through a guide needle (18G) into the dermal tissue. After the withdrawal of the guide needle, the probe membrane stayed in the dermal tissue, the position of which was previously verified by ultrasonic scanning. Probes were then fixed carefully with tape (Omnisilk, Hartmann, Germany).

[4] = no source given; cited from earlier work
[5] = tested on: P-gp; parameters: method as in PMID 18725258; details: in vivo penetration experiments; cited from earlier work

C/C=C/C[C@@H](C)C(=O)[C@H]1C(=O)N[C@@H](C(C)C)C(=O)N(C)CC(=O)N(C)[C@@H](CC(C)C)C(=O)N[C@@H](C(C)C)C(=O)N(C)[C@@H](CC(C)C)C(=O)N[C@@H](C)C(=O)N[C@H](C)C(=O)N(C)[C@@H](CC(C)C)C(=O)N(C)[C@@H](CC(C)C)C(=O)N(C)[C@@H](C(C)C)C(=O)N1C [PSC-833, valspodar]
effect of PSC-833 pretreatment on erythromycin permeability (AUC) ([1]; fresh skins, young and aged, 2% ERY cream, PSC-833 1 mg/mL DMSO, 100 μL, 10 min before, ANOVA, Tukey test): significant effect on permeability | effect of PSC-833 pretreatment on quinidine permeability (AUC) ([1]; fresh skins, young and aged, 2% QND cream, ANOVA, Tukey test): statistically relevant effect only on aged subjects | effect of P-gp inhibitor on erythromycin absorption ([1]; frozen aged skin, 2% ERY cream): opposite effect

CC[C@H]1OC(=O)[C@H](C)[C@@H](O[C@H]2C[C@@](C)(OC)[C@@H](O)[C@H](C)O2)[C@H](C)[C@@H](O[C@@H]2O[C@H](C)C[C@H](N(C)C)[C@H]2O)[C@](C)(O)C[C@@H](C)C(=O)[C@H](C)[C@@H](O)[C@]1(C)O [erythromycin, Erythromycin]
diffusion through frozen/thawed vs fresh skin ([1]; 2% ERY cream): enhanced compared to fresh skins | permeability in aged vs young skin ([1]; 2% ERY cream): increased in the aged skin samples | dynamics of absorption in the 270-min observation period ([2]; 2% suspension cream): only the absorption phase could be reached, or the plateau was initiated | effect of P-gp modulation on drug absorption in vivo [3]: moderate but reproducible reduction in drug absorption | logP (lipophilicity) [4]: 3.06

CCC(C)n1ncn(-c2ccc(N3CCN(c4ccc(OCC5COC(Cn6cncn6)(c6ccc(Cl)cc6Cl)O5)cc4)CC3)cc2)c1=O (stereo not shown) [itraconazole]
drug distribution in the skin after topical application with lack of or inhibition of P-gp [5]: decreased drug distributions therein

C=C[C@H]1C[N@@]2CC[C@H]1C[C@@H]2[C@@H](O)c1ccnc2ccc(OC)cc12 [quinidine]
permeability of the controls, aged vs young skin ([1]; fresh skins, DMSO pretreated, 2% QND cream): independent of age | effect of P-gp inhibition on transdermal delivery ([2]; 2% gel, PSC-833 pretreatment): dramatic reduction in transdermal delivery | plateau phase of skin penetration profile ([2]; 2% gel, flow 4 μL/min): 90 to 180 min

rhodamine
drug distribution in the skin after topical application with lack of or inhibition of P-gp [5]: decreased drug distributions therein

Reference: PMC7559210, “Verification of P-Glycoprotein Function at the Dermal Barrier in Diffusion Cells and Dynamic “Skin-On-A-Chip” Microfluidic Device” (Pharmaceutics, 2020)
